Source: US10175230B2, “Use of biomarkers for evaluating the effectiveness of active ingredients” (LABORATOIRES EXPANSCIENCE, priority 2013, dated 2019)
Marks after values point to notes of the source that are not given here.

Columns and labels:
hyaluronic acid = test: Production of hyaluronic acid by keratinocytes, ELISA of supernatants; assay type: cell-based, human; settings: 10^−7 M, 24 hours, positive reference
Procedure: Normal human epidermal keratinocytes were incubated in the presence of 0.005% and 0.05% avocado perseose or 10^-7 M retinoic acid (all-trans-retinoic acid; Sigma), positive reference.
After 24 hours of incubation, hyaluronic acid produced by the keratinocytes was assayed in the cultured supernatants with an ELISA (Tebu). The quantity of hyaluronic acid measured was related to the number of living cells estimated by means of a neutral red assay.

PAD1 = test: Gene expression of peptidylarginine deiminase (PAD1) by RT-PCR; assay type: cell-based, human; settings: 10^−7 M, 48 hours, positive reference
Procedure: Normal human epidermal keratinocytes, cultured in differentiation-inducing medium (supplemented with Ca++), were incubated for 48 hours in the presence of 0.005% and 0.05% avocado perseose or 10^-7M vitamin D3 (1α,25-dihydroxyvitamin D3; Sigma), positive reference.
At the conclusion of the treatment, the RNA were extracted and the gene expression of PAD1 was evaluated by RT-PCR; the reference gene GAPDH was used to normalize the results.

[1] = test system: Ehrlich ascites carcinoma tumor cells; settings: perseitol associated with a potassium ion; Shibuya et al. 1999; cited from earlier work

CC1=C(/C=C/C(C)=C/C=C/C(C)=C/C(=O)O)C(C)(C)CCC1 [Retinoic acid, all-trans-retinoic acid]
Hyaluronic acid (ng/ml/living cells) (hyaluronic acid): 544.024 ± 34.026 ng/ml/living cells | Increase of hyaluronic acid produced versus control cells (hyaluronic acid): +119% ***

C=C1/C(=C\C=C2/CCC[C@]3(C)[C@@H]([C@H](C)CCCC(C)(C)O)CC[C@@H]23)C[C@@H](O)C[C@@H]1O [Vitamin D3, 1α,25-dihydroxyvitamin D3]
PAD1 (Relative Quantity normalized by GAPDH) (PAD1): 2.66 | Stimulation of PAD1 gene expression versus control cells (PAD1): +166% **

OCC(O)C(O)C(O)C(O)C(O)CO (centres unmarked) [perseitol, Perseitol]
Incorporation of 3H-leucine [1]: inhibits
